Experimental data: PubChem BioAssay AID1626 (SRMLSC, 2009)

Test system: M. tuberculosis H37Rv growth inhibition
Experiment: M. tuberculosis H37Rv growth inhibitors, H37Rv strain (AID 1626)
Settings: for IC90: measured here: IC90 against H37Rv; for CC50: measured here: Vero cell cytotoxicity

SMILES	IC50	IC90	CC50
CCN(CC)c1ccc(CNc2nc3ccccc3n2CCN2CCCCC2)cc1	36.7 µM	43.8 µM	> 40 µM
COc1ccc(NC(=O)COC(=O)CCCOc2ccc(Cl)cc2Cl)cc1Cl	80.6 µM	> 100 µM	
c1ccc(OCc2nn3c(-c4n[nH]c5c4CCC5)nnc3s2)cc1	1.23 µM	6.8 µM	
CNc1nc(-c2ccccn2)nnc1-c1ccccc1	8.5 µM	11.1 µM	11.3 µM
O=c1[nH]c(=O)n(Cc2ccccc2Cl)c(O)c1/C=C1/C=CC=N1	< 0.391 µM	3.23 µM	27.2 µM
O=C(/C=C/c1ccco1)Nc1nc(-c2ccccn2)cs1	0.446 µM	3.54 µM	> 40 µM
CCOc1ccc2c3c(c(=O)oc2c1OCC)CCCC3	7.11 µM	12.8 µM	
Cc1ccc(NC2=C/C(=N\S(=O)(=O)c3cccs3)c3ccccc3C2=O)c(C)c1	3.89 µM	5.64 µM	3.74 µM
CCOC(=O)c1c(C)n(-c2ccc(C)cc2)c2ccc(OCC(O)CNCCCO)cc12 (centres undefined)	20.3 µM	37.1 µM	13 µM
CS(=O)(=O)Cc1nc2ccccc2oc1=O	1.45 µM	2.01 µM	> 40 µM
Cc1csc(NC(=O)CSc2ccc(-c3ccccn3)nn2)n1	5.48 µM	6.15 µM	> 40 µM
Cc1ccc(Cl)cc1NC1=C/C(=N\S(=O)(=O)c2cccs2)c2ccccc2C1=O	1.91 µM	3.21 µM	5.83 µM
NC1=NC[C@H](Cc2ccc(O)cc2)N1CCCCC1CCCCC1	5.33 µM	7.7 µM	
CN(C)CCCN(C(=O)CCc1ccccc1)c1nc2ccc(Br)cc2s1	22.5 µM	24.2 µM	16.7 µM
O=[N+]([O-])c1cc(S(=O)(=O)Nc2ccccc2)ccc1N1CCN(c2ccccc2)CC1	14.5 µM	25.5 µM	28.2 µM
CCOC(=O)c1ccc(N2C(=O)c3n[nH]c(-c4ccco4)c3C2c2ccc([N+](=O)[O-])cc2)cc1 (centres undefined)	9.07 µM	17 µM	28 µM
Cc1nc([N+](=O)[O-])c(Br)n1CC(=O)c1ccc(Cl)cc1	16.8 µM	23.2 µM	30.6 µM
COc1cccc(C(=O)/C=C/c2ccc(N3CCCCC3)c([N+](=O)[O-])c2)c1	29.4 µM	> 100 µM	27.2 µM
c1ccc(C2[C@H]3CN(CC4CCCCC4)[C@H](c4ccccc4)C34CC2(c2cccnc2)C4)cc1 (some centres undefined)	15 µM	23.4 µM	
Cc1ccsc1C(=O)Nc1nc2ccccc2[nH]1	20.4 µM	> 100 µM	25.3 µM
COC(=O)CSc1ccc(-c2nc3ccc(C)cc3[nH]2)cn1	1.95 µM	3.39 µM	

SMILES	IC50	IC90	CC50
CSc1ccccc1NC(=O)c1cc(C2CC2)on1	23.6 µM	26.7 µM	
O=C(Nc1nnc(-c2ccccc2)o1)c1nc2ccccc2s1	6.13 µM	13.6 µM	> 40 µM
CC(C)(C)C(=O)COC(=O)c1cc2ccccc2cc1O	2.73 µM	16.5 µM	
COc1ccc(CNC[C@@H](CCCCN(C)Cc2ccc(OC)cc2)N2C[C@H](c3ccccc3)N(CCc3ccc(Cl)c(Cl)c3)C(=O)C2=O)cc1	12.2 µM	19.2 µM	11.5 µM
CCOC(=O)CSc1ccc(-c2nc3cc(C)c(C)cc3[nH]2)cn1	1.09 µM	2.24 µM	
CCOC(=O)c1ccc(N/C=C2/CCCC(C)C2=O)cc1 (centres undefined)	10.9 µM	> 100 µM	
CCCCNC(=O)COC(=O)c1cc(F)c(F)cc1Cl	6.16 µM	> 100 µM	
O=C1Nc2ccccc2/C1=C/C(=O)c1cccs1	4.39 µM	26.1 µM	33.7 µM
O=C(c1ccccc1)c1c2c(cc3sc4ccccc4[n+]13)-c1cccc3cccc-2c13	2.81 µM	5.22 µM	23.1 µM
O=C(CNC(=O)/C(=C\c1ccc(Br)cc1)NC(=O)c1ccccc1)OCc1ccccc1	1.92 µM	3.33 µM	13 µM
COc1ccc2ncc(OC(C)=O)cc2c1		> 100 µM	
Cc1cc(N2CCC(C)CC2)nc(-n2nc(C)cc2C)n1	3.18 µM	> 100 µM	16.5 µM
N#Cc1ccc(/C=C/C(=O)c2ccc3c(c2)OCO3)cc1		> 100 µM	
CCCCc1ccc(NC(=O)C2CCCO2)cc1 (centres undefined)	1.71 µM	> 100 µM	
CC(=O)C1=C(C)NC(SCC(=O)c2ccc(F)cc2)=C(C#N)C1c1ccco1 (centres undefined)	11.7 µM	21.1 µM	> 40 µM
Nc1c(C(=O)NCCc2ccccc2)c2nc3ccccc3nc2n1CCN1CCOCC1	18.6 µM	25.4 µM	31.4 µM
COc1cc2c(cc1NC(=O)CSc1nc3ccccc3[nH]1)oc1ccccc12	10.4 µM	> 100 µM	> 40 µM
Cc1cc(=O)[nH]c(SCC(=O)C23CC4CC(CC(C4)C2)C3)c1C#N		> 100 µM	21.2 µM
COC(=O)[C@H](NC(=O)c1cc(-c2ccccc2)nc2ccccc12)c1ccccc1	1.69 µM	3.37 µM	
COc1ccc(O)c(C(=O)CC(=O)c2ccccc2C)c1	17.2 µM	> 100 µM	17.1 µM
COc1cccc(/C=C2\Sc3ccc(C(=O)NCc4cccnc4)cc3N(C)C2=O)c1	2.83 µM	6.21 µM	> 40 µM

SMILES	IC50	IC90	CC50
COc1ccc(-c2nn(-c3ccccc3)cc2C(=O)Nc2nccs2)cc1		> 100 µM	> 40 µM
CCOc1ccc(N/C(C)=C/C(=O)c2ccc(C)o2)cc1	13.3 µM	> 100 µM	
CCCNC(=O)CSc1nnc(-c2ccc(F)cc2)o1	5.88 µM	> 100 µM	
COc1cccc(C2C(C(=O)Nc3nc4ccccc4s3)=C(C)NC3=C2C(=O)CC(C)(C)C3)c1OC (centres undefined)		> 100 µM	> 40 µM
N=C1SC(c2ccccc2)C(=O)N1c1ncc(Cc2ccccc2)s1 (centres undefined)	26 µM	> 100 µM	34.9 µM
COc1ccc(NC(=O)CCCSc2ccccc2)cc1		> 100 µM	
CCC(=O)Nc1nc2ccccc2n1Cc1ccccc1C	1.47 µM	> 100 µM	> 40 µM
CC1(C)CC(NC(=O)c2sc3cc(Cl)ccc3c2Cl)CC(C)(C)N1		> 100 µM	12.6 µM
CCOC(=O)N1CCN=C1SCc1ccc(C(F)(F)F)cc1		> 100 µM	
CCCc1cc(C(=O)Nc2nccs2)cs1	17.7 µM	> 100 µM	
Cc1ccc(C(=O)Oc2cccc(NC(=O)c3ccccc3)c2)cc1C	7.76 µM	12.9 µM	
Nc1ccc2cc(Br)ccc2c1	0.632 µM	> 100 µM	
O=C(Nc1ccc(N2CCN(C(=O)c3ccco3)CC2)cc1)C(c1ccccc1)c1ccccc1	12 µM	14.1 µM	> 40 µM
Cc1cc(NC2CCCCC2)nc(NCc2ccccc2)n1	10.3 µM	13.2 µM	18.2 µM
CCn1c(NC(=O)c2cccc(Cn3cc(Cl)cn3)c2)nc2ccccc21	3.65 µM	> 100 µM	> 40 µM
COc1ccc(NC(=O)CSc2ncn(-c3ccccc3)n2)cc1Cl		> 100 µM	
Cc1oc2ccc(OC(=O)c3cccs3)cc2c1C(=O)OC(C)C	2.84 µM	21.3 µM	
COc1cc(CNC23CC4CC(CC(C4)C2)C3)ccc1OCc1ccccc1	2.94 µM	3.35 µM	> 40 µM
COc1cc(OC)c(-c2nn3c(C4CCCCC4)nnc3s2)cc1OC	2.2 µM	6.47 µM	
C=CCn1c(COc2ccc3c(c2)CCCC3)nnc1SCC(=O)Nc1cccc(SC)c1		> 100 µM	
CCCCC(=O)OCC(=O)Nc1ccc(SC(F)F)cc1		> 100 µM	

SMILES	IC50	IC90	CC50
O=C(/C=C/c1ccccc1)c1c(O)n(CCc2ccccc2)c(=O)[nH]c1=O	9.75 µM	11.6 µM	37.1 µM
Cc1cccn2c(=O)c3cc(C(=O)NCc4ccco4)c(=N)n(CCc4ccccc4)c3nc12	9.99 µM	21.2 µM	18.8 µM
Cn1nc(-c2ccc(Cl)cc2)c2cc(C(=O)N3CCN(c4ccccn4)CC3)sc21	2.49 µM	4.36 µM	> 40 µM
COc1cc(NC(=O)c2c(F)c(F)c(F)c(F)c2F)c(OC)cc1Cl	0.738 µM	> 100 µM	> 40 µM
O=C(Nc1nnc(-c2cccs2)o1)c1cccc(C(F)(F)F)c1	< 0.391 µM	11.9 µM	20.6 µM
COc1ccc(NC(=O)CN(C)CC(=O)Nc2cccc(F)c2)cc1Cl	32 µM	> 100 µM	
CN1CCN(CCCNC(=O)c2ccc(/C=C3\Sc4ccccc4N(Cc4ccc(F)cc4)C3=O)cc2)CC1	6.38 µM	11.3 µM	12.5 µM
Cc1cccc(OCCCCc2c(C)n[nH]c2C)c1	10.9 µM	15.5 µM	> 40 µM
CCCCCCc1cc2cc(C(=O)NC)c(=N)oc2cc1O	4.69 µM	7.11 µM	
CCOC(=O)CSCC(=O)Nc1c(C(=O)C2CC2)oc2ccccc12	5.86 µM	9.32 µM	
N#CC(c1cccc(Cl)c1)c1ccc2c(C(F)(F)F)cc(C(F)(F)F)nc2n1 (centres undefined)			0.415 µM
O=C(/C=C/c1ccc(Br)cc1)c1ccco1	14.5 µM	21.3 µM	> 40 µM
O=C(Nc1nc2ccccc2s1)C1c2ccccc2Oc2ccccc21		> 100 µM	> 40 µM
O=c1c2c(nc3c(-c4ccc(Cl)cc4)c[nH]n13)CCC2	12.9 µM	25.6 µM	18.9 µM
CCc1cccc2c(C(=O)COC(=O)c3ccc([N+](=O)[O-])s3)c[nH]c12	< 0.195 µM	0.99 µM	> 40 µM
COC(=O)c1c(C)oc2ccc(OC(=O)c3cccs3)cc12	1.1 µM	17.8 µM	
Cc1ccc(C(C)C)c(OCc2nn(CC(=O)c3ccc(OC(F)F)cc3)c3[n+]2CCCCC3)c1	1.07 µM	1.46 µM	> 40 µM
CSCCC(NC(=O)c1cc([N+](=O)[O-])cc([N+](=O)[O-])c1)c1nc2ccccc2[nH]1 (centres undefined)	5.37 µM	5.96 µM	
CC(C)Nc1cc(C(F)(F)F)nc(-c2ccccn2)n1	5.17 µM	> 100 µM	
